Converted amounts (≈) assume the structure as drawn.
Experiment: Solubility of the compound at pH 7.4 by potentiometric titration method
Assay type: physicochemical
Details: buffer

| Structure (SMILES) | solubility |
| --- | --- |
| Cc1c(F)c(N)cc(C(=O)Nc2cc(-c3ccc(C(=O)N4CCOCC4)cc3)ccc2N2CCN(C)CC2)c1Cl | 48.2 µM (≈ 27.3 µg/mL) |
| Cc1c(F)c(N)cc(C(=O)Nc2cc(-n3cc(C(=O)O)nn3)ccc2N2CCN(C)CC2)c1Cl | 349 µM (≈ 170 µg/mL) |
| Cc1c(F)c(N)cc(C(=O)Nc2cc(-n3cc(C(=O)N4CCOCC4)nn3)ccc2N2CCN(C)CC2)c1Cl | 361 µM (≈ 201 µg/mL) |
| Cc1c(F)c(N)cc(C(=O)Nc2cc(-n3cc(C(=O)NC4CCOCC4)nn3)ccc2N2CCN(C)CC2)c1Cl | 95.6 µM (≈ 54.6 µg/mL) |
| Cc1c(F)c(N)cc(C(=O)Nc2cc(-n3cc(C(=O)NC4CCN(C)CC4)nn3)ccc2N2CCN(C)CC2)c1Cl | 343 µM (≈ 201 µg/mL) |
| Cc1c(F)c(N)cc(C(=O)Nc2cc(-n3cc(C(=O)NCCCN4CCOCC4)nn3)ccc2N2CCN(C)CC2)c1Cl | 246 µM (≈ 151 µg/mL) |
| COC(=O)c1cn(-c2ccc(N3CCN(C)CC3)c(NC(=O)c3cc(N)c(F)c(C)c3Cl)c2)nn1 | 41.5 µM (≈ 20.8 µg/mL) |

Continued, values first:

| solubility | Structure (SMILES) |
| --- | --- |
| 3.9 µM (≈ 2.31 µg/mL) | Cc1c(F)c(N)cc(C(=O)Nc2cc(-c3ccc(NC(=O)C4CCN(C)CC4)cc3)ccc2N2CCN(C)CC2)c1Cl |
| 40.5 µM (≈ 20.1 µg/mL) | Cc1c(F)c(N)cc(C(=O)Nc2cc(-c3ccc(C(=O)O)cc3)ccc2N2CCN(C)CC2)c1Cl |
| 126 µM (≈ 73.3 µg/mL) | Cc1c(F)c(N)cc(C(=O)Nc2cc(-c3ccc(NC(=O)C4CCOCC4)cc3)ccc2N2CCN(C)CC2)c1Cl |
| 199 µM (≈ 110 µg/mL) | Cc1c(F)c(N)cc(C(=O)Nc2cc(-c3ccc(NC(=O)CCCN)cc3)ccc2N2CCN(C)CC2)c1Cl |
| 3.7 µM (≈ 1.89 µg/mL) | COC(=O)c1ccc(-c2ccc(N3CCN(C)CC3)c(NC(=O)c3cc(N)c(F)c(C)c3Cl)c2)cc1 |
